PubChem BioAssay (NCI)
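96-well plates; 48 h exposure; 5 concentrations. Endpoints by linear interpolation between flanking doses. Not reached: highest tested concentration assigned. TGI is the concentration that stops growth completely.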

Tests used:
Experiment in all cases: inhibition of tumour cell growth, NCI panel, 48 h
786-0 renal = test system: 786-0 renal
A498 renal = test system: A498 renal
A549 NSCLC = test system: A549 NSCLC
ACHN renal = test system: ACHN renal
CCRF-CEM leukemia = test system: CCRF-CEM leukemia
COLO 205 colon = test system: COLO 205 colon
DLD-1 colon = test system: DLD-1 colon
DMS 273 small cell lung = test system: DMS 273 small cell lung
EKVX NSCLC = test system: EKVX NSCLC
HCT-116 colon = test system: HCT-116 colon
HCT-15 colon = test system: HCT-15 colon
HL-60(TB) leukemia = test system: HL-60(TB) leukemia
HOP-18 NSCLC = test system: HOP-18 NSCLC
HOP-62 NSCLC = test system: HOP-62 NSCLC
HOP-92 NSCLC = test system: HOP-92 NSCLC
HT29 colon = test system: HT29 colon
IGROV1 ovarian = test system: IGROV1 ovarian
K-562 leukemia = test system: K-562 leukemia
KM12 colon = test system: KM12 colon
KM20L2 colon = test system: KM20L2 colon
LOX IMVI melanoma = test system: LOX IMVI melanoma
LXFL 529 NSCLC = test system: LXFL 529 NSCLC
M14 melanoma = test system: M14 melanoma
M19-MEL melanoma = test system: M19-MEL melanoma
MOLT-4 leukemia = test system: MOLT-4 leukemia
NCI-H226 lung = test system: NCI-H226 lung
NCI-H23 lung = test system: NCI-H23 lung
NCI-H460 lung = test system: NCI-H460 lung
NCI-H522 lung = test system: NCI-H522 lung
OVCAR-4 ovarian = test system: OVCAR-4 ovarian
OVCAR-5 ovarian = test system: OVCAR-5 ovarian
OVCAR-8 ovarian = test system: OVCAR-8 ovarian
RPMI-8226 leukemia = test system: RPMI-8226 leukemia
RXF 393 renal = test system: RXF 393 renal
SF-268 CNS = test system: SF-268 CNS
SF-295 CNS = test system: SF-295 CNS
SF-539 CNS = test system: SF-539 CNS
SK-MEL-28 melanoma = test system: SK-MEL-28 melanoma
SK-MEL-5 melanoma = test system: SK-MEL-5 melanoma
SN12C renal = test system: SN12C renal
SNB-19 CNS = test system: SNB-19 CNS
SNB-75 CNS = test system: SNB-75 CNS
SR leukemia = test system: SR leukemia
SW-620 colon = test system: SW-620 colon
U251 CNS = test system: U251 CNS
UACC-257 melanoma = test system: UACC-257 melanoma
UACC-62 melanoma = test system: UACC-62 melanoma
BT-549 breast = test system: BT-549 breast
CAKI-1 renal = test system: CAKI-1 renal
DU-145 prostate = test system: DU-145 prostate
HCC-2998 colon = test system: HCC-2998 colon
HS 578T breast = test system: HS 578T breast
MALME-3M melanoma = test system: MALME-3M melanoma
MCF7 breast = test system: MCF7 breast
MDA-MB-231 breast = test system: MDA-MB-231 breast
MDA-MB-435 = test system: MDA-MB-435
MDA-N = test system: MDA-N
NCI/ADR-RES ovarian = test system: NCI/ADR-RES ovarian
OVCAR-3 ovarian = test system: OVCAR-3 ovarian
PC-3 prostate = test system: PC-3 prostate
SK-MEL-2 melanoma = test system: SK-MEL-2 melanoma
SK-OV-3 ovarian = test system: SK-OV-3 ovarian
T-47D breast = test system: T-47D breast
TK-10 renal = test system: TK-10 renal
UO-31 renal = test system: UO-31 renal
DMS 114 small cell lung = test system: DMS 114 small cell lung
SNB-78 CNS = test system: SNB-78 CNS

Measured: TGI

CC1=N/C(=C\c2ccc(N)cc2)C(=O)N1Nc1nnc(NN2C(=O)/C(=C/c3ccc(N)cc3)N=C2C)c2ccccc12
69.3 µM: SF-295 CNS
81.5 µM: KM12 colon
64.3 µM: HOP-62 NSCLC
56.1 µM: HL-60(TB) leukemia
56.5 µM: NCI-H226 lung
41.7 µM: NCI-H522 lung
not listed: BT-549 breast | CAKI-1 renal | DU-145 prostate | HCC-2998 colon | HS 578T breast | MALME-3M melanoma | MCF7 breast | MDA-MB-231 breast | MDA-MB-435 | MDA-N | NCI/ADR-RES ovarian | OVCAR-3 ovarian | PC-3 prostate | SK-MEL-2 melanoma | SK-OV-3 ovarian | T-47D breast | TK-10 renal | UO-31 renal | DMS 114 small cell lung | SNB-78 CNS
> 100 µM: all other assays above

CC(C)c1ccc2c(c1)CCC1C(C)(CN)CCCC21C (centres undefined)
2.89 µM: 786-0 renal | MDA-MB-435
2.83 µM: U251 CNS
2.98 µM: RXF 393 renal
3.98 µM: SK-OV-3 ovarian
0.485 µM: HCC-2998 colon
3.1 µM: M14 melanoma
2.66 µM: UO-31 renal
3.11 µM: SK-MEL-28 melanoma
3.57 µM: HS 578T breast
3.15 µM: SK-MEL-2 melanoma
3.43 µM: BT-549 breast
3.12 µM: PC-3 prostate
3.61 µM: MOLT-4 leukemia | NCI/ADR-RES ovarian
2.99 µM: LOX IMVI melanoma | SR leukemia
3.26 µM: OVCAR-3 ovarian
3.22 µM: SF-268 CNS
3.16 µM: SN12C renal
3.17 µM: HCT-15 colon | SK-MEL-5 melanoma
3.08 µM: TK-10 renal
3.92 µM: CCRF-CEM leukemia
3.4 µM: EKVX NSCLC | NCI-H226 lung | OVCAR-8 ovarian
3.33 µM: DU-145 prostate | OVCAR-5 ovarian
2.72 µM: OVCAR-4 ovarian
3.14 µM: HOP-62 NSCLC | UACC-62 melanoma
2.97 µM: HOP-92 NSCLC
2.8 µM: MALME-3M melanoma
3.03 µM: UACC-257 melanoma
2.9 µM: SW-620 colon
3.34 µM: KM12 colon | SF-295 CNS
3.19 µM: SNB-75 CNS
2.82 µM: MCF7 breast
2.96 µM: CAKI-1 renal | SNB-19 CNS
3.09 µM: ACHN renal | HL-60(TB) leukemia
3.01 µM: K-562 leukemia
2.95 µM: MDA-MB-231 breast
2.78 µM: A498 renal
3.36 µM: NCI-H23 lung | NCI-H522 lung | SF-539 CNS
1.43 µM: COLO 205 colon
3.3 µM: T-47D breast
4.3 µM: RPMI-8226 leukemia
3.37 µM: A549 NSCLC
2.86 µM: MDA-N
2.93 µM: HCT-116 colon | IGROV1 ovarian
2.39 µM: HT29 colon
2.6 µM: NCI-H460 lung

CCN(CC)CCOc1ccc(N2Cc3cc(OC)c(OC)cc3C2=O)cc1
not listed: DLD-1 colon | DMS 273 small cell lung | HOP-18 NSCLC | KM20L2 colon | LXFL 529 NSCLC | M19-MEL melanoma | SNB-75 CNS | UO-31 renal | DMS 114 small cell lung | SNB-78 CNS
> 100 µM: all other assays above

Cc1cnc2cc(Cl)ccc2c1NCCN(CC(C)C)CC(C)C
85.3 µM: HOP-92 NSCLC
not listed: 786-0 renal | A498 renal | A549 NSCLC | CCRF-CEM leukemia | DLD-1 colon | DMS 273 small cell lung | EKVX NSCLC | HCT-15 colon | HOP-18 NSCLC | K-562 leukemia | LOX IMVI melanoma | NCI-H226 lung | OVCAR-8 ovarian | RXF 393 renal | SK-MEL-5 melanoma | SN12C renal | SNB-19 CNS | SW-620 colon | BT-549 breast | CAKI-1 renal | DU-145 prostate | HS 578T breast | MALME-3M melanoma | MCF7 breast | MDA-MB-231 breast | MDA-MB-435 | MDA-N | NCI/ADR-RES ovarian | PC-3 prostate | T-47D breast | TK-10 renal
> 100 µM: all other assays above
